Measurements as given in US20100292185A1, “BETA-LACTAMASE INHIBITORS” (priority 2009, published 2010).
Where a name gives a salt, the structure may show the parent alone. Read-outs that look alike come from different tables or passages of the source.

Experiments:
SHV-5 β-lactamase = molecular target: T1, SHV-5 β-lactamase (Klebsiella pneumoniae, UniProt P0A3M1); assay: β-lactamase enzyme inhibition assay (nitrocefin substrate), SHV-5; format: biochemical
T1 construct: expressed as native untagged proteins; made in house; host or cells: E. coli BL21(DE3)
Outline: (§1)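 Read-out: kinetic A486 over 10 min after adding nitrocefin at 100 μM final. Before substrate addition, enzyme and inhibitor (100–0.005 μM, PBS pH 7.0) sat together for 10 min at 37 °C. IC50 is the concentration halving the initial hydrolysis rate versus no-inhibitor wells.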

CTX-M15 β-lactamase = molecular target: T2, CTX-M15 β-lactamase (Escherichia coli, UniProt Q9EXV5); assay: β-lactamase enzyme inhibition assay (nitrocefin substrate), CTXM-15; format: biochemical
T2 construct: expressed as native untagged proteins; made in house; host or cells: E. coli BL21(DE3)
Outline: as §1

p99 AmpC β-lactamase = molecular target: T3, p99 AmpC β-lactamase (Enterobacter cloacae, UniProt P05364); assay: β-lactamase enzyme inhibition assay (nitrocefin substrate), P99 AmpC; format: biochemical
T3 construct: expressed as native untagged proteins; made in house; host or cells: E. coli BL21(DE3)
Outline: as §1

KPC-2 β-lactamase = molecular target: T4, KPC-2 β-lactamase (Klebsiella pneumoniae, UniProt Q9F663); assay: β-lactamase enzyme inhibition assay (nitrocefin substrate), KPC-2; format: biochemical
T4 construct: expressed as native untagged proteins; made in house; host or cells: E. coli BL21(DE3)
Outline: as §1

[1] = molecular target: T5, VIM-2 metallo β-lactamase (Pseudomonas aeruginosa, UniProt Q9K2N0); assay: β-lactamase enzyme inhibition assay (nitrocefin substrate), VIM-2; format: biochemical; settings: nitrocefin 100 μM, 37° C., PBS pH 7.0; read-out: VIM-2 IC50
T5 construct: made in house
Outline: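 VIM-2 was expressed untagged in E. coli BL21(DE3) and purified by two Q sepharose anion-exchange runs plus gel filtration to >90% purity. Compounds at 100–0.005 μM in PBS pH 7.0 were preincubated with enzyme for 10 min at 37° C, then nitrocefin was added at 100 μM final. Hydrolysis was followed kinetically at 486 nm for 10 min; IC50 is the concentration halving the initial rate relative to no-inhibitor wells.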

OXA-23 β-lactamase = molecular target: T6, OXA-23 β-lactamase (Acinetobacter baumannii, UniProt Q9L4P2); assay: β-lactamase enzyme inhibition assay (nitrocefin substrate), OXA-23 crude extract; format: biochemical; settings: nitrocefin 100 μM, 37° C., PBS pH 7.0; read-out: OXA-23 IC50
T6 construct: crude β-lactamase extracts were prepared from 20 ml overnight cultures; endogenous in cells; host or cells: Acinetobacter baumannii cells containing OXA-23 (crude freeze-thaw extract)
Outline: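 Crude enzyme came from freeze-thaw extracts of mid-log OXA-23-carrying A. baumannii grown in MH-II broth at 37° C. Inhibitors (100–0.005 μM in PBS pH 7.0) were preincubated with the enzyme for 10 min at 37° C, then 100 μM nitrocefin (final) was added and read kinetically at 486 nm for 10 min. IC50 was taken from initial hydrolysis rates relative to uninhibited controls.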

[2] = test system: E. coli expressing the Class A ESBL SHV-5; assay: In vitro antibacterial assay of β-lactamase inhibition (broth microdilution MIC), E. coli SHV-5; format: cell-based; settings: in presence of Ceftazidime 8 μg/ml (Examples 1-56)
Outline: (§2)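 MIC read by eye after 16-20 h at 37° C. Compounds were titrated 2-fold from 8 μg/mL down to 0.015 μg/mL (final) in CAMHB with a β-lactam antibiotic, and wells were inoculated per CLSI with strains grown 3-5 h under 50 μg/mL ampicillin.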

[3] = test system: K. pneumoniae expressing the Class A Extended Spectrum Beta-Lactamase (ESBL) CTX-M-15; assay: In vitro antibacterial assay of β-lactamase inhibition (broth microdilution MIC), K. pneumoniae CTX-M-15; format: cell-based; settings: in presence of Ceftazidime 8 μg/ml (Examples 1-56)
Outline: as §2

[4] = test system: E. cloacae expressing the Class C P99+; assay: In vitro antibacterial assay of β-lactamase inhibition (broth microdilution MIC), E. cloacae P99+; format: cell-based; settings: in presence of Ceftazidime 8 μg/ml (Examples 1-56)
Outline: as §2

[5] = test system: K. pneumoniae expressing the Class A carbapenemase KPC-2; assay: microbe, parasite or virus in culture; format: cell-based; settings: in presence of Ceftazidime 8 μg/ml (Examples 1-56)
Outline: as §2

[6] = test system: P. aeruginosa expressing the Class B metallo β-lactamase VIM-2; assay: In vitro antibacterial assay of β-lactamase inhibition (broth microdilution MIC), P. aeruginosa VIM-2; format: cell-based; settings: in presence of Ceftazidime 16 μg/mL (Examples 1-56)
Outline: as §2

[7] = nitrocefin 100 μM, 37° C., PBS pH 7.0, read-out: P99 AmpC IC50

T3 sequence (P05364 21-381): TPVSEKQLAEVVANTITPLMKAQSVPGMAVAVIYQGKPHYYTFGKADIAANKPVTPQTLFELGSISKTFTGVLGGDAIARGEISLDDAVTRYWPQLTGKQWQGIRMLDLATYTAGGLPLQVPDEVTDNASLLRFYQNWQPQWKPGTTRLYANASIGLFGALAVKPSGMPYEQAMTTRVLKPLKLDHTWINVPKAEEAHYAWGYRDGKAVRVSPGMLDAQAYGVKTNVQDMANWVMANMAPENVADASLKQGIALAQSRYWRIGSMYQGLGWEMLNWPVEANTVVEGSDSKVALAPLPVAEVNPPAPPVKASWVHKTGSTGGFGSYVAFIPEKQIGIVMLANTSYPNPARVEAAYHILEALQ
T1 sequence (P0A3M1 22-286): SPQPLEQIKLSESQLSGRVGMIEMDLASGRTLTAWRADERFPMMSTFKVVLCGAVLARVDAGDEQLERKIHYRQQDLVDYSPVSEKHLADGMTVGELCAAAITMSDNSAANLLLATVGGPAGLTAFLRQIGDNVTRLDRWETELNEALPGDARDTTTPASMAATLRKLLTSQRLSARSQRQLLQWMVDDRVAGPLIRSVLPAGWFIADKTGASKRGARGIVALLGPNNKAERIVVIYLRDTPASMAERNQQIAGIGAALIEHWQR
T2 sequence (Q9EXV5 entry or part of it): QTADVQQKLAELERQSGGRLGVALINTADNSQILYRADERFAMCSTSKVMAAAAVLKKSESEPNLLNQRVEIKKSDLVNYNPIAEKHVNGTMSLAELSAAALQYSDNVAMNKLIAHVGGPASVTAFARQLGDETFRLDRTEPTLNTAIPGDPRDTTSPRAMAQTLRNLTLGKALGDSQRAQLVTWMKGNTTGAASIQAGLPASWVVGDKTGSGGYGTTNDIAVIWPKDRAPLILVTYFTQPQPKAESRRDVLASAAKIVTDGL
T6 sequence (Q9L4P2 18-273): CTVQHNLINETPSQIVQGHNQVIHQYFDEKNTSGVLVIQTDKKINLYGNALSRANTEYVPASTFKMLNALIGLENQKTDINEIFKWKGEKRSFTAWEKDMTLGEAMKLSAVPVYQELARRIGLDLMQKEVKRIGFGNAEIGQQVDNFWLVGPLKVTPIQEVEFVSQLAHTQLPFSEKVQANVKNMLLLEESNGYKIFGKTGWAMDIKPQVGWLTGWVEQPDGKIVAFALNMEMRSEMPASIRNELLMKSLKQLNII
T4 sequence (Q9F663 25-293 limits assumed): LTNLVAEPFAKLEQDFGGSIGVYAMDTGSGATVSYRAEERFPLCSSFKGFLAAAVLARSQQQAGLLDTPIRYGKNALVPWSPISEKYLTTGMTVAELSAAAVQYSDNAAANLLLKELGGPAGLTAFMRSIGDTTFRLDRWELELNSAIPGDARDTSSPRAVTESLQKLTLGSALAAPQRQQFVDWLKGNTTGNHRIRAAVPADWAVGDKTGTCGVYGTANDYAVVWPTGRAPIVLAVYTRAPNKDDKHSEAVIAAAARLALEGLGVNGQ

Compound | IC50 (SHV-5 β-lactamase) | IC50 (CTX-M15 β-lactamase) | IC50 (p99 AmpC β-lactamase; [7]) | IC50 (KPC-2 β-lactamase) | IC50 [1] | IC50 (OXA-23 β-lactamase) | MIC of example compound, E. coli SHV-5 [2] | MIC of example compound, K. pneumoniae CTX-M-15 [3] | MIC of example compound, E. cloacae P99+ [4] | MIC of example compound, K. pneumoniae KPC-2 [5] | MIC of example compound, P. aeruginosa VIM-2 [6] | IC50 (p99 AmpC β-lactamase)
Cl.Nc1cncc(C(=O)N[C@@H](Cc2cccc(C(=O)O)c2O)B(O)O)c1 [Example 44, (2R)-3-{[2-(5-amino-pyridine-3-carbonyl)-amino]-2-borono-ethyl}-2-hydroxy-benzoic acid hydrochloride] | 0.07 µM | 0.002 µM | 0.001 µM | 0.03 µM | 0.69 µM | 0.12 µM | 1 mg/L | 0.25 mg/L | 1 mg/L | 0.015 mg/L | >8 mg/L | 
Nc1cc(CC(=O)N[C@@H](Cc2cccc(C(=O)O)c2O)B(O)O)ccn1 [Example 45, (2R)-3-{2-[(2-amino-pyridin-4-yl-acetyl)-amino]-2-borono-ethyl}-2-hydroxy-benzoic acid formate] | 0.01 µM | 0.0005 µM |  | 0.006 µM | 0.811 µM | 0.113 µM | 0.03 mg/L | 0.03 mg/L | 0.06 mg/L | 0.007 mg/L | >8 mg/L | 0.002 µM
Br.CC(C)(O/N=C(\C(=O)N[C@@H](Cc1cccc(C(=O)O)c1O)B(O)O)c1csc(N)n1)C(=O)O [Example 48, 3-{2(R)-[2-(2-amino-thiazol-4-yl)-2-(1-carboxy-1-methyl-ethoxyimino)-acetylamino]-2-borono-ethyl}-2-hydroxy-benzoic acid hydrobromide] | 0.004 µM | 0.012 µM | 0.01 µM | 0.07 µM | > 1 µM | 0.67 µM | >8 mg/L | >8 mg/L | >8 mg/L | 2 mg/L | >8 mg/L | 
Cl.Nc1nc(/C(=N/O)C(=O)N[C@@H](Cc2cccc(C(=O)O)c2O)B(O)O)cs1 [Example 49, 3-{2(R)-[2-(2-amino-thiazol-4-yl)-2(Z)-hydroxyimino-acetylamino]-2-borono-ethyl}-2-hydroxy-benzoic acid hydrochloride] | 0.004 µM | 0.011 µM | 0.002 µM | 0.034 µM | 0.59 µM | 0.017 µM | 2 mg/L | 2 mg/L | 2 mg/L | 0.12 mg/L | >8 mg/L | 
C/C(=N/O)C(=O)N[C@@H](Cc1cccc(C(=O)O)c1O)B(O)O [Example 54, 3-[2(R)-(2-hydroxyimino-propionylamino)-2-borono-ethyl]-2-hydroxy-benzoic acid] | 0.048 µM | 0.005 µM | 0.002 µM | 0.01 µM | > 1 µM | 0.494 µM | 2 mg/L | 1 mg/L | 1 mg/L | 0.03 mg/L | >8 mg/L | 
CC/C(=N/O)C(=O)N[C@@H](Cc1cccc(C(=O)O)c1O)B(O)O [Example 55, 3-[2(R)-(2-hydroxyimino-butyrylamino)-2-borono-ethyl]-2-hydroxy-benzoic acid] | 0.12 µM | 0.001 µM | 0.0005 µM | 0.006 µM | > 1 µM | 0.067 µM | 2 mg/L | 2 mg/L | 1 mg/L | 0.06 mg/L | >8 mg/L | 
